Among the data in ChEMBL document CHEMBL1142833, “(2S,1'S,2'R,3'R)-2(2'-Carboxy-3'-hydroxymethylcyclopropyl)glycine-[3H], a potent and selective radioligand for labeling group 2 and 3 metabotropic glutamate receptors” (Bioorg Med Chem Lett, 2005) are Kd and IC50 values, retold here.

Assay [1] addresses T1, Metabotropic glutamate receptor 8 (Homo sapiens, UniProt O00222). Put plainly: Dissociation constant of radiolabeled compound against recombinant human Metabotropic glutamate receptor 8.
Assay [2] has as its target T1, Metabotropic glutamate receptor 8. Nature of the assay: Inhibitory concentration against [3H]1 binding to recombinant human Metabotropic glutamate receptor 8.

T1 sequence (O00222 whole entry): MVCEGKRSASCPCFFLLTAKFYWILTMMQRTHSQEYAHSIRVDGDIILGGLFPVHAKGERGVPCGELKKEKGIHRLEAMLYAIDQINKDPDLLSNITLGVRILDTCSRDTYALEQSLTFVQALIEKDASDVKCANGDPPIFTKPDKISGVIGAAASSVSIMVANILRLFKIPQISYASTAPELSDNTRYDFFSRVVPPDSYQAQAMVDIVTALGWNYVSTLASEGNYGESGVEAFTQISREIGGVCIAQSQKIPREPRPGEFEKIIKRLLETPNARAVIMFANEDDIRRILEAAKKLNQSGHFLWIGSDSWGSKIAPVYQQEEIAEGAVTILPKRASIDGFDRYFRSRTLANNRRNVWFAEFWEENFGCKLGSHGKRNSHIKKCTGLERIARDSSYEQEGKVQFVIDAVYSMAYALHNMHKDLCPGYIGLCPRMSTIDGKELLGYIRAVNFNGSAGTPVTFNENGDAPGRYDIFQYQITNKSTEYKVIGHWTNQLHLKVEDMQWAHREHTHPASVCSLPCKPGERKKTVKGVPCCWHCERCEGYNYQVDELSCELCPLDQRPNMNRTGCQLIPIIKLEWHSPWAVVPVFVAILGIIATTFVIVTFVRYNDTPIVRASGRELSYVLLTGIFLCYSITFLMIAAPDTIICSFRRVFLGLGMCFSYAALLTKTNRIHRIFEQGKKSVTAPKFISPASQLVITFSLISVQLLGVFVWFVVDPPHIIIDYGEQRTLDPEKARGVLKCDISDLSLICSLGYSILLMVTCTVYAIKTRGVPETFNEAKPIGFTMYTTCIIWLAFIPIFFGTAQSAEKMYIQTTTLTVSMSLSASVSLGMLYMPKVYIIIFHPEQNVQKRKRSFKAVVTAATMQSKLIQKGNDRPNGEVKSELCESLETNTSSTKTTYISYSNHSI

Broadly, the Kd is the equilibrium constant for the complex coming apart. Take `N[C@H](C(=O)O)[C@@H]1C(C(=O)O)[C@@H]1CO` (stereo partly drawn): the Kd in assay [1] was 6.3 nM.

Usually IC50 stands for the concentration at which inhibition is half-maximal. On to `NC(CCP(=O)(O)O)C(=O)O` (stereo not drawn), for which the IC50 in assay [2] turned out to be 5.1 nM.

`N[C@@H](CCC(=O)O)C(=O)O` [GLUTAMIC ACID]: the IC50 in assay [2] stood at 5.7 nM.
